# Assay results reported in patent US20260285876A1, “MACROCYCLIC COMPOUNDS AS USP1 INHIBITORS” (GUANGDONG NEWOPP BIOPHARMACEUTICALS CO., LTD., priority 2023, published 2026).
# Biological target: T1, USP1/UAF1 (Homo sapiens, UniProt O94782)
# T1 construct: purchased R&D Systems
# Assay: Deubiquitination assay for USP1/UAF1 (ubiquitin-rhodamine 110 substrate)
# Assay type: biochemical
# Settings: 0.5 nM USP1/UAF1, 150 nM ubiquitin-rhodamine, 50% inhibition compared to DMSO control
# Description: Deubiquitination assay for USP1/UAF1: compounds described here were tested for their ability to inhibit USP1 deubiquitinase activity in this assay using ubiquitin-rhodamine 110 as the substrate. The assay was conducted in the assay buffer (50 mM Tris-HCl, pH 7.8, 0.5 mM EDTA, 0.1 mg/ml Bovine Serum Albumin, 1 mM DTT, 0.01% Tween-20) in 384 well plates. 0.5 nM USP1/UAF1 (R&D Systems) was incubated with compounds in dose response format for 10 minutes at room temperature. Then the reaction was initiated by addition of 150 nM ubiquitin-rhodamine (R&D Systems). The fluorescence intensity was read after 45 minutes at Ex488/Em535 by CLARIOstar (BMG Labtech). IC50 response curves were plotted.
# T1 sequence (O94782 whole entry): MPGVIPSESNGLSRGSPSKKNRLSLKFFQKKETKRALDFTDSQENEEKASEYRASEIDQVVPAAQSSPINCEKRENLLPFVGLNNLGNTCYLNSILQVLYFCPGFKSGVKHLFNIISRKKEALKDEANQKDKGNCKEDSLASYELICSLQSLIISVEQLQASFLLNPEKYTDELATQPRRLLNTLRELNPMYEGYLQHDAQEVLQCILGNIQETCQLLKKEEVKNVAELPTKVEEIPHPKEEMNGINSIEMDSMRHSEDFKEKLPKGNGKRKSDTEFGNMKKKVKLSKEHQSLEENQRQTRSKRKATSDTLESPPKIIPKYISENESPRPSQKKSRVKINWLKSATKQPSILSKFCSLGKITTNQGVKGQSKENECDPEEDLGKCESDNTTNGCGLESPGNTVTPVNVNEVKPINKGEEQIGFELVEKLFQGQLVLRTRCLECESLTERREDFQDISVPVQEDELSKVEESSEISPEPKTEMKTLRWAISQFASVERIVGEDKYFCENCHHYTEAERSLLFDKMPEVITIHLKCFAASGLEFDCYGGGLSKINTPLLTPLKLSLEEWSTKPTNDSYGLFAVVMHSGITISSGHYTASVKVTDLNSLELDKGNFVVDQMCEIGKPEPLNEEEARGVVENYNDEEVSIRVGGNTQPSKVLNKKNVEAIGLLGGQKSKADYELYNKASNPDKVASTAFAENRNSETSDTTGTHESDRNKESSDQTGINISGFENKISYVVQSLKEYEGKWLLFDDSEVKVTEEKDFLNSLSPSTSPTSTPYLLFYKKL
# T1 sequence (Q8TAF3 whole entry partner): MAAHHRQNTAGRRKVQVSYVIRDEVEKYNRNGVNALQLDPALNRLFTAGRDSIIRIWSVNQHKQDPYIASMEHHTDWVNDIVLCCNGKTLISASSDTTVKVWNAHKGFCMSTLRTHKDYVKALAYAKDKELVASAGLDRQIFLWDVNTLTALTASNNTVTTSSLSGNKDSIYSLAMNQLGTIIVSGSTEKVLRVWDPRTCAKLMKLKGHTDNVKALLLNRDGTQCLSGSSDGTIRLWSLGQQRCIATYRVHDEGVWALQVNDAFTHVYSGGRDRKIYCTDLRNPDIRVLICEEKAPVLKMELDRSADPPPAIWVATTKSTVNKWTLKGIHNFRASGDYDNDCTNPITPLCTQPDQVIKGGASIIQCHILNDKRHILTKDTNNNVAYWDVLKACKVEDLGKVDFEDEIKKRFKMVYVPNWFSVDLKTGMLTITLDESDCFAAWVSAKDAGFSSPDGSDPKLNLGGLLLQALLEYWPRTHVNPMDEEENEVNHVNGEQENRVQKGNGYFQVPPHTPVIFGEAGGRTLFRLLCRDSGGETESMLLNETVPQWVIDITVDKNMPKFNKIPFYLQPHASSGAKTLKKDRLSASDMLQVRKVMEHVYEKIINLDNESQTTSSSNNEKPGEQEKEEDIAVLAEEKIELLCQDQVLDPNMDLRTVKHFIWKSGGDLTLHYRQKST
row,Compound,IC50 [nM]
1,"FC(F)(F)c1cn(C2CC2)c(-c2ccc3c(c2)/C=C/CCOc2ncnc(C4CC4)c2-c2ncc4ccc(n4n2)C3)n1 [Example 51, (2^1Z,5E)-1^6-cyclopropyl-4^4-(1-cyclopropyl-4-(trifluoromethyl)-1H-imidazol-2-yl)-8-oxa-2(2,7)-pyrrolo[2,1-f][1,2,4]triazina-1(5,4)-pyrimidina-4(1,2)-benzenacyclooctaphan-5-ene]",≤ 100
2,"FC(F)(F)c1cn(C2CC2)c(-c2ccc3c(c2)NCCCOc2ncnc(C4CC4)c2-c2ncc4ccc(n4n2)C3)n1 [Example 41, (Z)-1^6-cyclopropyl-4^4-(1-cyclopropyl-4-(trifluoromethyl)-1H-imidazol-2-yl)-9-oxa-5-aza-2(2,7)-pyrrolo[2,1-f][1,2,4]triazina-1(5,4)-pyrimidina-4(1,2)-benzenacyclononaphane]",≤ 100
3,"CC(C)n1cc(C(F)(F)F)nc1-c1ccc2cc1OCCCOc1ncnc(C3CC3)c1-c1ncc3ccc(=O)n(c3n1)C2 [Example 49, 1^6-cyclopropyl-4^4-(1-isopropyl-4-(trifluoromethyl)-1H-imidazol-2-yl)-2^7,2^8-dihydro-5,9-dioxa-2(2,8)-pyrido[2,3-d]pyrimidina-1(5,4)-pyrimidina-4(1,3)-benzenacyclononaphan-27-one]",≤ 100
4,"CC(C)n1cc(C(F)(F)F)nc1-c1ccc2c(c1)N(C)CCCOc1ncnc(C3CC3)c1-c1ncc3cnn(c3n1)C2 [Example 23, 1^6-cyclopropyl-4^4-(1-isopropyl-4-(trifluoromethyl)-1H-imidazol-2-yl)-5-methyl-2^1H-9-oxa-5-aza-2(6,1)-pyrazolo[3,4-d]pyrimidina-1(5,4)-pyrimidina-4(1,2)-benzenacyclononaphane]",≥ 1000
5,"CC(C)n1cc(C(F)(F)F)nc1-c1ccc2c(c1)OCCOc1ncnc(C3CC3)c1-c1ncc3ccc(n3n1)C2 [Example 31, (Z)-1^6-cyclopropyl-4^4-(1-isopropyl-4-(trifluoromethyl)-1H-imidazol-2-yl)-5,8-dioxa-2(2,7)-pyrrolo[2,1-f][1,2,4]triazina-1(5,4)-pyrimidina-4(1,2)-benzenacyclooctaphane]",≤ 100
6,"1^6-cyclopropyl-4^4-(1-isopropyl-4-(trifluoromethyl)-1H-imidazol-2-yl)-2^1-methyl-2^1H-5,8-dioxa-2(5,3)-pyrazolo[4,3-d]pyrimidina-1(5,4)-pyrimidina-4(1,2)-benzenacyclooctaphane [Example 22]",≤ 100
7,"CC(C)n1cc(C(F)(F)F)nc1-c1ccc2cc1OCCOc1ncnc(C3CC3)c1-c1ncc3cnn(c3n1)C2 [Example 29, 1^6-cyclopropyl-44-(1-isopropyl-4-(trifluoromethyl)-1H-imidazol-2-yl)-2^1H-5,8-dioxa-2(6,1)-pyrazolo[3,4-d]pyrimidina-1(5,4)-pyrimidina-4(1,3)-benzenacyclooctaphane]",≤ 100
8,"CC(C)n1cc(C(F)(F)F)nc1-c1ccc2c(c1)CCCOc1ncnc(C3CC3)c1-c1ncc3ccc(=O)n(c3n1)C2 [Example 25, 1^6-cyclopropyl-4^4-(1-isopropyl-4-(trifluoromethyl)-1H-imidazol-2-yl)-2^7,2^8-dihydro-8-oxa-2(2,8)-pyrido[2,3-d]pyrimidina-1(5,4)-pyrimidina-4(1,2)-benzenacyclooctaphan-2^7-one]",≤ 100
9,"CC(C)n1cc(C(F)(F)F)nc1-c1ccc2c(c1)SCCOc1ncnc(C3CC3)c1-c1ncc3cnn(c3n1)C2 [Example 27, 1^6-cyclopropyl-4^4-(1-isopropyl-4-(trifluoromethyl)-1H-imidazol-2-yl)-2^1H-8-oxa-5-thia-2(6,1)-pyrazolo[3,4-d]pyrimidina-1(5,4)-pyrimidina-4(1,2)-benzenacyclooctaphane]",≤ 100
10,"CC(C)n1cc(C(F)(F)F)nc1-c1ccc2c(c1)OCCCNc1ncnc(C3CC3)c1-c1ncc3ccc(=O)n(c3n1)C2 [Example 19, 1^6-cyclopropyl-4^4-(1-isopropyl-4-(trifluoromethyl)-1H-imidazol-2-yl)-2^7,2^8-dihydro-5-oxa-9-aza-2(2,8)-pyrido[2,3-d]pyrimidina-1(5,4)-pyrimidina-4(1,2)-benzenacyclononaphan-2^7-one]",100 to 1000
11,"1^6-cyclopropyl-4^4-(1-isopropyl-4-(trifluoromethyl)-1H-imidazol-2-yl)-2^1H-9-oxa-5-aza-2(6,1)-pyrazolo[3,4-d]pyrimidina-1(5,4)-pyrimidina-4(1,3)-benzenacyclonona-phane [Example 50]",≤ 100
12,"Fc1cc2n3nc(ncc13)-c1c(ncnc1C1CC1)OCCOc1cc(-c3nc(C(F)(F)F)cn3C3CC3)ccc1C2 [Example 34, (Z)-1^6-cyclopropyl-4^4-(1-cyclopropyl-4-(trifluoromethyl)-1H-imidazol-2-yl)-2^5-fluoro-5,8-dioxa-2(2,7)-pyrrolo[2,1-f][1,2,4]triazina-1(5,4)-pyrimidina-4(1,2)-benzenacyclooctaphane]",≤ 100
13,"CC(C)n1cc(C(F)(F)F)nc1-c1ccc2c(c1)/C=C/COc1ncnc(C3CC3)c1-c1ncc3cnn(c3n1)C2 [Example 30, (E)-1^6-cyclopropyl-4^4-(1-isopropyl-4-(trifluoromethyl)-1H-imidazol-2-yl)-2^1H-8-oxa-2(6,1)-pyrazolo[3,4-d]pyrimidina-1(5,4)-pyrimidina-4(1,2)-benzenacyclooctaphan-5-ene]",≤ 100
14,"CC(C)c1cccc2c1-c1ncc3cnn(c3n1)Cc1ccc(-c3nc(C(F)(F)F)cn3C(C)C)cc1OCCO2 [Example 7, 1^6-isopropyl-4^4-(1-isopropyl-4-(trifluoromethyl)-1H-imidazol-2-yl)-2^1H-5,8-dioxa-2(6,1)-pyrazolo[3,4-d]pyrimidina-1,4(1,2)-dibenzenacyclooctaphane]",≤ 100
15,"CC(C)n1cc(C(F)(F)F)nc1-c1ccc2c(c1)NCCCOc1ncnc(C3CC3)c1-c1ncc3ccc(=O)n(c3n1)C2 [Example 20, 1^6-cyclopropyl-4^4-(1-isopropyl-4-(trifluoromethyl)-1H-imidazol-2-yl)-2^7,2^8-dihydro-9-oxa-5-aza-2(2,8)-pyrido[2,3-d]pyrimidina-1(5,4)-pyrimidina-4(1,2)-benzenacyclononaphan-2^7-one]",≤ 100

# Results, then the compound that gave them:
row,IC50 [nM],Compound
1,≤ 100,"CC(C)c1cc(C(F)(F)F)nn1-c1ccc2c(c1)NCCCOc1ncnc(C3CC3)c1-c1ncc3cnn(c3n1)C2 [Example 37, 16-cyclopropyl-44-(5-isopropyl-3-(trifluoromethyl)-1H-pyrazol-1-yl)-21H-9-oxa-5-aza-2(6,1)-pyrazolo[3,4-d]pyrimidina-1(5,4)-pyrimidina-4(1,2)-benzenacyclononaphane]"
2,≤ 100,"FC(F)(F)c1cn(C2CC2)c(-c2ccc3cc2OCCCOc2ncnc(C4CC4)c2-c2ncc4ccc(n4n2)C3)n1 [Example 52, (Z)-1^6-cyclopropyl-4^4-(1-cyclopropyl-4-(trifluoromethyl)-1H-imidazol-2-yl)-5,9-dioxa-2(2,7)-pyrrolo[2,1-f][1,2,4]triazina-1(5,4)-pyrimidina-4(1,3)-benzenacyclononaphane]"
3,≥ 1000,"CC(C)n1cc(C(F)(F)F)nc1-c1ccc2c(c1)OCCCCOc1ncnc(C3CC3)c1-c1ncc3cnn(c3n1)C2 [Example 3, 1^6-cyclopropyl-4^4-(1-isopropyl-4-(trifluoromethyl)-1H-imidazol-2-yl)-2^1H-5,10-dioxa-2(6,1)-pyrazolo[3,4-d]pyrimidina-1(5,4)-pyrimidina-4(1,2)-benzenacyclodecaphane]"
4,≤ 100,"CC(C)n1cc(C(F)(F)F)nc1-c1ccc2c(c1)COCCOc1ncnc(C3CC3)c1-c1ncc3cnn(c3n1)C2 [Example 28, 1^6cyclopropyl-4^4-(1-isopropyl-4-(trifluoromethyl)-1H-imidazol-2-yl)-2^1H-6,9-dioxa-2(6,1)-pyrazolo[3,4-d]pyrimidina-1(5,4)-pyrimidina-4(1,2)-benzenacyclononaphane]"
5,≤ 100,"Cc1cc(C(F)(F)F)nn1-c1ccc2cc1OCCCOc1ncnc(C3CC3)c1-c1ncc3cnn(c3n1)C2 [Example 56, 1^6-cyclopropyl-4^4-(5-methyl-3-(trifluoromethyl)-1H-pyrazol-1-yl)-2^1H-5,9-dioxa-2(6,1)-pyrazolo[3,4-d]pyrimidina-1(5,4)-pyrimidina-4(1,3)-benzenacyclononaphane]"
6,≤ 100,"CC(C)n1cc(C(F)(F)F)nc1-c1ccc2c(c1)NCCCOc1ncnc(C3CC3)c1-c1ncc3ccn(c3n1)C2 [Example 35, 1^6-cyclopropyl-4^4-(1-isopropyl-4-(trifluoromethyl)-1H-imidazol-2-yl)-2^7H-9-oxa-5-aza-2(2,7)-pyrrolo[2,3-d]pyrimidina-1(5,4)-pyrimidina-4(1,2)-benzenacyclononaphane]"
7,≤ 100,FC(F)(F)c1cn(C2CC2)c(-c2ccc3cc2CCCCOc2ncnc(C4CC4)c2-c2ncc4ccc(n4n2)C3)n1 [Example 47]
8,≤ 100,"CC(C)n1cc(C(F)(F)F)nc1-c1ccc2c(c1)OCCCOc1ncnc(C3CC3)c1-c1ncc3cnn(c3n1)C2 [Example 5, 1^6-cyclopropyl-4^4-(1-isopropyl-4-(trifluoromethyl)-1H-imidazol-2-yl)-2^1H-5,9-dioxa-2(6,1)-pyrazolo[3,4-d]pyrimidina-1(5,4)-pyrimidina-4(1,2)-benzenacyclononaphane]"
9,≤ 100,"FC(F)(F)c1cn(C2CC2)c(-c2ccc3c(c2)NCCOc2ncnc(C4CC4)c2-c2ncc4ccc(n4n2)C3)n1 [Example 42, (Z)-1^6-cyclopropyl-4^4-(1-cyclopropyl-4-(trifluoromethyl)-1H-imidazol-2-yl)-8-oxa-5-aza-2(2,7)-pyrrolo[2,1-f][1,2,4]triazina-1(5,4)-pyrimidina-4(1,2)-benzenacyclooctaphane]"
